Read-outs that look alike come from different tables or passages of the source. Marks after values point to notes of the source that are not given here.
Key:
F11 cells = test: FLIPR calcium assay, activation of F11 cells; type: cell-based; details: for Concentration at which cytolysis (rapid increase in fluorescence followed by decrease to or below baseline) was observed / EC50 / Neuronal Cell Activation (EC50): F11 cells, FLIPR; for EC50 / Neuronal Cell Activation (EC50): Calcium 4 dye, max-min fluorescence in 300 s after peptide addition, PSS with 0.1% BSA, mean ± SEM, triplicate; for EC50: read-out: Neuronal Cell Activation (EC50)
Method: F11 cells were cultured as previously described. Cells were maintained on Ham’s F12 media supplemented with 10% fetal bovine serum (FBS), 100 µM hypoxanthine, 0.4 µM aminopterin, and 16 µM thymidine (Hybri-MaxTM, Sigma Aldrich, North Ryde, Australia). Then, 384-well imaging plates (Corning) were seeded 48 h prior to imaging resulting in 90–95% confluence at imaging. Cells were incubated for 30 min with the Calcium 4 assay component A according to the manufacturer’s instructions (Molecular Devices, Sunnyvale, CA, USA) in physiological salt solution (PSS; composition in mM: 140 NaCl, 11.5 D-glucose, 5.9 KCl, 1.4 MgCl2, 1.2 NaH2PO4, 5 NaHCO3, 1.8 CaCl2, 10 HEPES) at 37°C. Fluorescence was measured using a fluorescent imaging plate reader (FLIPR^TETRA) equipped with a CCD camera (Excitation: 470–490 nm, Emission: […]) (Molecular Devices, Sunnyvale, CA, USA). Signals were read every second for 10 s before, and 300 s after the addition of peptides in PSS supplemented with 0.1% bovine serum albumin. All data are the mean ± SEM of assays performed in triplicate. Maximum–minimum fluorescence in the 300 s period after peptide addition was recorded as the response. Concentration–response data were fitted with a four-parameter Hill equation (variable slope) using GraphPad Prism 8 to obtain effective concentration (EC50) values.

Haemonchus contortus = test: microbe, parasite or virus in culture; type: cell-based; details: for IC50: read-out: Anthelmintic Activity (IC50), inhibition of larval development
Method: Sheep were infected with H. contortus Kirby isolate (field isolate from the University of New England Kirby Research Farm in 1986; susceptible to all commercial anthelmintics) and housed at the Commonwealth Scientific and Industrial Research Organisation (CSIRO) FD McMaster Laboratory, Armidale, NSW. All animal procedures were approved by the FD McMaster Animal Ethics Committee, CSIRO (Approval Number AEC 17/12, approval date 15.6.2017). Eggs were prepared from overnight fecal collection as described. In brief, feces were filtered through mesh filters, settled, and supernatant removed by vacuum. Eggs were recovered by density centrifugation using 10 and 25% (w/v) sucrose solutions, centrifuged at 650× g for 7 min. Eggs were recovered from the interface of the two sucrose layers, rinsed with distilled water, sterilized with bleach, rinsed again, and diluted to 4500 eggs/mL. Tylosin tartrate (800 μg/mL) and amphotericin B (25.0 μg/mL) were added, and eggs were used immediately for larval development assays.
Assays were conducted using 96-well microtitre plates, with each well containing 50 μL of 2% agar, 20 μL of egg solution and 20 μL of peptide solution in water. The commercial anthelmintic levamisole (Sigma Aldrich) was used as a positive control (final 1% v/v). Negative controls contained equivalent volumes of water or DMSO (final 1% v/v). Plates were incubated at 26 °C for six days. After 24 h, each well was fed with 10 μL of a nutrient solution containing Escherichia coli XL1-Blue1 (grown overnight at 37 °C) and growth medium. The growth medium consisted of yeast extract (1% w/v), Earle’s salt solution (10% v/v), saline solution (0.9% NaCl, w/v), and sodium bicarbonate (1 mM) in Luria-Bertani medium (LB). Larvae were killed and stained with Lugol’s iodine solution after six days. Larvae that had developed to the infective L3 stage were counted, and the numbers in treated assay wells were expressed as a percentage of the number of infective L3 stage larvae in multiple control wells. Concentrations that caused 50% inhibition (IC50 values) were calculated from three experiments of duplicate assays.

Drosophila melanogaster = Drosophila melanogaster microinjection assay; type: in vivo; details: intrathoracic injection, 50 nL, adult female flies, lethality at 24 h; three dose-response curves, ± SEM
Method: The insecticidal activity of the chemically synthesized 1a and analogues thereof were determined by injection into adult female D. melanogaster aged 3–5 days (mass 0.7–0.9 mg) as described previously. Analogues were dissolved in water and intrathoracically injected using pulled glass capillaries at a volume of 50 nL per fruit fly, and the results were compared against an equivalent injection volume of water alone. All injections were performed in the morning or early afternoon. At 24 h post-injection flies were monitored for lethality. Dose–response curves were constructed using 7–10 doses per analogue (each dose tested in eight flies) and three separate dose–response curves were constructed for each analogue. The lethality in the groups receiving the analogues were adjusted using the respective control group lethality using the Henderson-Tilton formula [20]. The median lethal dose (LD50) of each analogue was calculated based on the three dose–response curves using GraphPad Prism 8.0 [21]. One-way ANOVA followed by Dunnett’s multiple comparison test were used to compare LD50 values.

HEK293 cells = details: HEK293, 24 h, resazurin; cited from earlier work
Method: (§1) Table 2 Summary of bioassay data for synthetic Mp1a and analogues, including effective concentration (EC50) for activation of F11 cells, concentrations that caused 50% inhibition (IC50) for inhibition of larval development of H. contortus; median lethal dose (LD50) for lethal insecticidal effects on D. melanogaster; concentrations required to induce 50% cell death (CC50) for effects on viability o | column: Cytotoxicity (CC50 µM) ^b

human red blood cells = details: cited from earlier work
Method: as §1, with “Hemolysis (HC50” for “Cytotoxicity (CC50”

[1] = H. contortus Kirby isolate, egg to infective L3, 6 days, 26 °C, three experiments of duplicate assays, ± SEM, for 1a the component at higher concentrations (about 90% of population)

For `CC[C@H](C)[C@H](N)C(=O)N[C@@H](CC(=O)O)C(=O)N[C@@H](Cc1c[nH]c2ccccc12)C(=O)N[C@@H](CCCCN)C(=O)N[C@@H](CCCCN)C(=O)N[C@H](C(=O)N[C@@H](CC(=O)O)C(=O)N[C@@H](Cc1c[nH]c2ccccc12)C(=O)N[C@@H](CCCCN)C(=O)N[C@@H](CCCCN)C(=O)N[C@H](C(=O)N[C@@H](CO)C(=O)N[C@@H](CCCCN)C(=O)N[C@@H](CCCCN)C(=O)N[C@H](C(=O)N[C@H]1CSSC[C@H](NC(=O)[C@@H](NC(=O)CNC(=O)[C@H](CCCCN)NC(=O)[C@H](CO)NC(=O)[C@@H](NC(=O)[C@H](CC(C)C)NC(=O)CNC(=O)[C@@H](NC(=O)[C@@H](N)CC(C)C)[C@@H](C)CC)C(C)C)[C@@H](C)O)C(=O)N[C@@H](C(C)C)C(=O)N[C@@H](CC(C)C)C(=O)N[C@@H](C(C)C)C(=O)N[C@@H](CCCCN)C(=O)N[C@@H]([C@@H](C)O)C(=O)N[C@@H](C(C)C)C(=O)N[C@H](C(=O)N[C@@H](CCCCN)C(=O)N[C@@H](CCCCN)C(=O)N[C@H](C(=O)N[C@@H](CC(C)C)C(=O)N[C@@H](CCCCN)C(=O)N[C@@H](CCC(N)=O)C(N)=O)C(C)C)CSSC[C@@H](C(=O)N[C@@H](CCCCN)C(=O)N[C@@H](Cc2ccccc2)C(=O)N[C@@H](CC(C)C)C(N)=O)NC(=O)[C@H](C)NC(=O)[C@H](CCCCN)NC(=O)[C@H](CC(C)C)NC(=O)[C@H](CCSC)NC(=O)[C@H](C(C)C)NC(=O)[C@H](CCCCN)NC1=O)[C@@H](C)O)C(C)C)C(C)C` [Analogue 2a], the “Concentration at which cytolysis (rapid increase in fluorescence followed by decrease to or below baseline) was observed” value (F11 cells) was no less than 1 µM, the EC50 (F11 cells) was 0.9 ± 0.08 µM and the “Fold less active than native Mp1a (1a), F11 cell activation” value (F11 cells; ratio of EC50 values) was “equipotent”. For the same compound, the IC50 (Haemonchus contortus; [1]) was 35.8 ± 1.9 µM, the “Insecticidal Activity (LD50)” value (Drosophila melanogaster) was greater than 600 pmol/g and the “Cytotoxicity (CC50)” value (HEK293 cells) was greater than 10 µM. The “Hemolysis (HC50)” value (human red blood cells) was greater than 10 µM.

For `CC[C@H](C)[C@H](N)C(=O)N[C@@H](CC(=O)O)C(=O)N[C@@H](Cc1c[nH]c2ccccc12)C(=O)N[C@@H](CCCCN)C(=O)N[C@@H](CCCCN)C(=O)N[C@H](C(=O)N[C@@H](CC(=O)O)C(=O)N[C@@H](Cc1c[nH]c2ccccc12)C(=O)N[C@@H](CCCCN)C(=O)N[C@@H](CCCCN)C(=O)N[C@H](C(=O)N[C@@H](CO)C(=O)N[C@@H](CCCCN)C(=O)N[C@@H](CCCCN)C(=O)N[C@H](C(=O)N[C@H]1CSSC[C@@H](C(=O)N[C@@H](CCCCN)C(=O)N[C@@H](CCCCN)C(=O)N[C@H](C(=O)N[C@@H](CC(C)C)C(=O)N[C@@H](CCCCN)C(=O)N[C@@H](CCC(N)=O)C(N)=O)C(C)C)NC(=O)[C@H](C(C)C)NC(=O)[C@H]([C@@H](C)O)NC(=O)[C@H](CCCCN)NC(=O)[C@H](C(C)C)NC(=O)[C@H](CC(C)C)NC(=O)[C@H](C(C)C)NC(=O)[C@@H](NC(=O)[C@@H](NC(=O)CNC(=O)[C@H](CCCCN)NC(=O)[C@H](CO)NC(=O)[C@@H](NC(=O)[C@H](CC(C)C)NC(=O)CNC(=O)[C@@H](NC(=O)[C@@H](N)CC(C)C)[C@@H](C)CC)C(C)C)[C@@H](C)O)CSSC[C@@H](C(=O)N[C@@H](CCCCN)C(=O)N[C@@H](Cc2ccccc2)C(=O)N[C@@H](CC(C)C)C(N)=O)NC(=O)[C@H](C)NC(=O)[C@H](CCCCN)NC(=O)[C@H](C)NC(=O)[C@H](CCSC)NC(=O)[C@H](C(C)C)NC(=O)[C@H](CCCCN)NC1=O)[C@@H](C)O)C(C)C)C(C)C` [Analogue 1d], the “Concentration at which cytolysis (rapid increase in fluorescence followed by decrease to or below baseline) was observed” value (F11 cells) was no less than 1 µM, the EC50 (F11 cells) was 3.38 ± 2.8 µM and the IC50 (Haemonchus contortus; [1]) was 9.5 ± 0.3 µM. The “Fold less active than levamisole (IC50 higher)” value (Haemonchus contortus; larval development, drug-susceptible isolate) was “approximately 10 fold”, the “Insecticidal Activity (LD50)” value (Drosophila melanogaster) was 578 ± 9.7 ^a pmol/g and the “Cytotoxicity (CC50)” value (HEK293 cells) was 0.7 µM. For the same compound, the “Hemolysis (HC50)” value (human red blood cells) was greater than 12 µM.

With “H-LIGLVSKGTSVLVKTVSKKVLKQ-NH2 [Analogue 4b]” the “Neuronal Cell Activation (EC50)” value (F11 cells) was “inactive”, the IC50 (Haemonchus contortus; [1]) was 61.3 ± 4.4 µM and the “Insecticidal Activity (LD50)” value (Drosophila melanogaster) was greater than 600 pmol/g. For the same compound, the “Cytotoxicity (CC50)” value (HEK293 cells) was greater than 15 µM and the “Hemolysis (HC50)” value (human red blood cells) was greater than 15 µM.

With `CC[C@H](C)[C@H](NC(=O)[C@@H](N)CC(C)C)C(=O)NCC(=O)N[C@@H](CC(C)C)C(=O)N[C@H](C(=O)N[C@@H](CO)C(=O)N[C@@H](CCCCN)C(=O)NCC(=O)N[C@H](C(=O)N[C@H]1CSSC[C@@H](C(=O)N[C@@H](CCCCN)C(=O)N[C@@H](CCCCN)C(=O)N[C@H](C(=O)N[C@@H](CC(C)C)C(=O)N[C@@H](CCCCN)C(=O)N[C@@H](CCC(N)=O)C(N)=O)C(C)C)NC(=O)[C@H](C(C)C)NC(=O)[C@H]([C@@H](C)O)NC(=O)[C@H](CCCCN)NC(=O)[C@H](C(C)C)NC(=O)[C@H](CC(C)C)NC(=O)[C@H](C(C)C)NC1=O)[C@@H](C)O)C(C)C` [Analogue 4a] the “Neuronal Cell Activation (EC50)” value (F11 cells) was “inactive”, the IC50 (Haemonchus contortus; [1]) was 65.5 ± 5.5 µM and the “Insecticidal Activity (LD50)” value (Drosophila melanogaster) was greater than 600 pmol/g. The “Cytotoxicity (CC50)” value (HEK293 cells) was greater than 15 µM and the “Hemolysis (HC50)” value (human red blood cells) was greater than 15 µM.

In the case of `c1ccc([C@H]2CN3CCSC3=N2)cc1` [levamisole, reference compound], the IC50 (Haemonchus contortus; Haemonchus contortus, 144 h) is reported as 0.68 µM.

In the case of “H-IDWKKVDWKKVSKKTSKVMLKASKFL-NH2 [Analogue 3b]”, the “Neuronal Cell Activation (EC50)” value (F11 cells) is reported as “inactive”, the IC50 (Haemonchus contortus; [1]) is reported as 64.9 ± 6.3 µM and the “Insecticidal Activity (LD50)” value (Drosophila melanogaster) is reported as greater than 600 pmol/g. For the same compound, the “Cytotoxicity (CC50)” value (HEK293 cells) was greater than 20 µM and the “Hemolysis (HC50)” value (human red blood cells) was greater than 20 µM.

With `CC[C@H](C)[C@H](N)C(=O)N[C@@H](CC(=O)O)C(=O)N[C@@H](Cc1c[nH]c2ccccc12)C(=O)N[C@@H](CCCCN)C(=O)N[C@@H](CCCCN)C(=O)N[C@H](C(=O)N[C@@H](CC(=O)O)C(=O)N[C@@H](Cc1c[nH]c2ccccc12)C(=O)N[C@@H](CCCCN)C(=O)N[C@@H](CCCCN)C(=O)N[C@H](C(=O)N[C@@H](CO)C(=O)N[C@@H](CCCCN)C(=O)N[C@@H](CCCCN)C(=O)N[C@H](C(=O)N[C@H]1CSSC[C@@H](C(=O)N[C@@H](CCCCN)C(=O)N[C@@H](Cc2ccccc2)C(=O)N[C@@H](CC(C)C)C(N)=O)NC(=O)[C@H](C)NC(=O)[C@H](CCCCN)NC(=O)[C@H](CC(C)C)NC(=O)[C@H](CCSC)NC(=O)[C@H](C(C)C)NC(=O)[C@H](CCCCN)NC1=O)[C@@H](C)O)C(C)C)C(C)C` [Analogue 3a] the “Neuronal Cell Activation (EC50)” value (F11 cells) was “inactive”, the IC50 (Haemonchus contortus; [1]) was 46.8 ± 0.6 µM and the “Insecticidal Activity (LD50)” value (Drosophila melanogaster) was greater than 600 pmol/g. The “Cytotoxicity (CC50)” value (HEK293 cells) was greater than 20 µM and the “Hemolysis (HC50)” value (human red blood cells) was greater than 20 µM.

From article PMC7400207, “It Takes Two: Dimerization Is Essential for the Broad-Spectrum Predatory and Defensive Activities of the Venom Peptide Mp1a from the Jack Jumper Ant Myrmecia pilosula” (Biomedicines, 2020)
